Drawing on US8785481B2, “Ether benzotriazole derivatives” (Merck Sharp & Dohme Corp., priority 2010, dated 2014), this text covers EC50 for 32 molecules.

pEC50: −log10 of the molar value.

The target in the experiment is T1, recombinant human mGluR2 (Homo sapiens, UniProt Q14416).
T1 construct: expressed in transfected cells
T1 sequence (Q14416 19-872): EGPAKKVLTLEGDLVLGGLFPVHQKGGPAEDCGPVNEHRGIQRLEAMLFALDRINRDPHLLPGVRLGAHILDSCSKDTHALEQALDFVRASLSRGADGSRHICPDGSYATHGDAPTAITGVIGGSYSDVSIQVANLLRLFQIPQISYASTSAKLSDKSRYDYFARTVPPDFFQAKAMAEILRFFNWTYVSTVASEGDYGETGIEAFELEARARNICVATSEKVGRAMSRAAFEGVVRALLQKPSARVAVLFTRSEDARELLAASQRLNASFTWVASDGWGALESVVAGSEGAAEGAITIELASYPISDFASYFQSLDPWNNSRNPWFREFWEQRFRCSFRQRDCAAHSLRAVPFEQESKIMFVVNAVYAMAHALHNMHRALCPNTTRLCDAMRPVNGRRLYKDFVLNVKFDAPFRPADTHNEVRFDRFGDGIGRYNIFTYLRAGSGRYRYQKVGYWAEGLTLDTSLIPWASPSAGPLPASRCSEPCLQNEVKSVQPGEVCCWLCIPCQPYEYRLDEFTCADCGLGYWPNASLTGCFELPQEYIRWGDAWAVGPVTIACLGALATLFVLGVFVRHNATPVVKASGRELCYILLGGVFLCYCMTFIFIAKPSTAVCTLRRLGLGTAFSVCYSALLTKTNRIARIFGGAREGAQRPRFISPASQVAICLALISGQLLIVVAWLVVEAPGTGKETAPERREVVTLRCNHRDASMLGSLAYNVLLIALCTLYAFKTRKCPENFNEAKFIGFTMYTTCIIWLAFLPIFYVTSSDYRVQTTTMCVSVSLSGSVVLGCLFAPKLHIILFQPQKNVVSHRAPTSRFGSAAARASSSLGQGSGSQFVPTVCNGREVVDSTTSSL
As to the kind of experiment: FLIPR Ca2+ mobilization assay, potentiation of glutamate (EC20) response. The note with it: CHO dhfr- cells expressing human mGluR2 and Gα16, EC20 glutamate (900 nM). The experiment is classed as cell-based. On the procedure: Potencies are determined as follows. The compounds of the present invention may be tested in a fluorescence laser imaging plate reader (FLIPR) based assay. This assay is a common functional assay to monitor Ca^2+ mobilization in whole cells expressing recombinant receptor coupled with a promiscuous G-protein. CHO dhfr- cells stably expressing recombinant human mGluR2 and Gα16 loaded with Fluo-4 AM (Invitrogen, Carlsbad Calif.) are treated with varying concentrations of compounds and the Ca^2+ response is monitored on a FLIPR384 (Molecular Devices, Sunnydale Calif.) for agonist activity. The potentiation response is monitored after a subsequent addition of an EC20 concentration of glutamate (900 nM). The maximum calcium response at each concentration of compound for agonism or potentiation are plotted as dose responses curves fitted with a four parameters logistic equation giving EC50 and Hill coefficient using the iterative non linear curve fitting software program.
`CCOc1ccc2c(nnn2CC(C)(C)C)c1Br` [Example 1-4, 4-bromo-1-(2,2-dimethylpropyl)-5-ethoxy-1H-benzotriazole]: the pEC50 was 7.49.

For the molecule `C=CCOc1ccc2c(nnn2CC2CC2)c1Br` [Example 10-120, 4-bromo-1-(cyclopropylmethyl)-5-(prop-2-en-1-yloxy)-1H-benzotriazole], the pEC50 is 7.22.

As for `CC(C)(C)Cn1nnc2c(Br)c(OCc3cccc(-c4ccc(O)c(C(=O)O)c4)c3)ccc21` [Example 3-3, 3′-({[4-bromo-1-(2,2-dimethylpropyl)-1H-benzotriazol-5-yl]oxy}methyl)-4-hydroxy-biphenyl-3-carboxylic acid], the pEC50 is 8.46.

With `CC(C)(C)Cn1nnc2c(Br)c(OCc3cccc(N4CCCCC4)n3)ccc21` [Example 4-27, 4-bromo-1-(2,2-dimethylpropyl)-5-[(6-piperidin-1-ylpyridin-2-yl)methoxy]-1H-benzotriazole], the pEC50 was 6.54.

In the case of `CC(C)(C)Cn1nnc2c(Br)c(OCc3cccc4ccnn34)ccc21` [Example 4-5, 4-bromo-1-(2,2-dimethylpropyl)-5-(pyrazolo[1,5-a]pyridin-7-ylmethoxy)-1H-benzotriazole], the pEC50 is 7.38.

Regarding `Cc1cnc(C#N)c(-c2cccc(COc3ccc4c(nnn4CC(C)(C)C)c3Br)c2)c1` [Example 3-26, 3-[3-({[4-bromo-1-(2,2-dimethylpropyl)-1H-benzotriazol-5-yl]oxy}methyl)phenyl]-5-methylpyridine-2-carbonitrile], the pEC50 was 7.80.

For `CC(C)(C)OC(=O)N1CCC(COc2ccc3c(nnn3CC3CC3)c2Cl)CC1` [Example 4-63, tert-butyl 4-({[4-chloro-1-(cyclopropylmethyl)-1H-benzotriazol-5-yl]oxy}methyl) piperidine-1-carboxylate], the pEC50 was 7.47.

For the molecule `CCOc1ccc2c(nnn2CC2CC2)c1Br` [Example 10-253, 4-bromo-1-(cyclopropylmethyl)-5-ethoxy-1H-benzotriazole], the pEC50 is 6.28.

For `FC(F)(F)CN1CCN(CCOc2ccc3c(nnn3CC3CC3)c2Br)CC1` [Example 10-220, 4-bromo-1-(cyclopropylmethyl)-5-{2-[4-(2,2,2-trifluoroethyl)piperazin-1-yl]ethoxy}-1H-benzotriazole], the pEC50 is 6.65.

Take `COc1cccc(COc2ccc3c(nnn3CC3CC3)c2Br)n1` [Example 6-1, 4-Bromo-1-(cyclopropylmethyl)-5-[(6-methoxypyridin-2-yl)methoxy]-1H-benzotriazole]: the pEC50 is 8.00.

Regarding `CC(Oc1ccc2c(nnn2CC(C)(C)C)c1Br)c1ccccc1` (centres unmarked) [Example 3-15, 4-bromo-1-(2,2-dimethylpropyl)-5-(1-phenylethoxy)-1H-benzotriazole], the pEC50 is 7.04.

Take `COc1ccc2c(nnn2CCCC(F)(F)F)c1Br` [Example 1-11, 4-bromo-5-methoxy-1-(4,4,4-trifluorobutyl)-1H-benzotriazole]: the pEC50 is 7.29.

`N#CCOc1ccc2c(nnn2CC2CC2)c1Br` [Example 5-1, {[4-Bromo-1-(cyclopropylmethyl)-1H-benzotriazol-5-yl]oxy}acetonitrile]: the pEC50 is 6.55.

For the molecule `FC(F)CN1CCC(Oc2ccc3c(nnn3CC3CC3)c2Br)CC1` [Example 10-47, 4-bromo-1-(cyclopropylmethyl)-5-{[1-(2,2-difluoroethyl)piperidin-4-yl]oxy}-1H-benzotriazole], the pEC50 is 6.37.

As to `CC(C)(C)C(O)COc1ccc2c(nnn2CC2CC2)c1Br` (racemic) [Example 8-1, (±)-1-{[4-Bromo-1-(cyclopropylmethyl)-1H-benzotriazol-5-yl]oxy}-3,3-dimethylbutan-2-ol], the pEC50 was 7.14.

With `Brc1c(OCc2cscn2)ccc2c1nnn2CC1CC1` [Example 10-56, 4-bromo-1-(cyclopropylmethyl)-5-(1,3-thiazol-4-ylmethoxy)-1H-benzotriazole], the pEC50 was 6.82.

As to `FC(F)(F)c1c(OCc2ccccc2)ccc2c1nnn2CC1CC1` [Example 11-1, 5-(Benzyloxy)-1-(cyclopropylmethyl)-4-(trifluoromethyl)-1H-benzotriazole], the pEC50 was 8.05.

On to `CC(C)[C@@H](C)n1nnc2c(Br)c(O)c(Br)cc21` [Example 2-4, 4,6-dibromo-1-[(1R)-1,2-dimethylpropyl]-1H-benzotriazol-5-ol], for which the pEC50 was 6.43.

Take `CC(C)(C)Cn1nnc2c(Br)c(OCc3ccccc3Cl)ccc21` [Example 4-45, 4-bromo-5-[(2-chlorobenzyl)oxy]-1-(2,2-dimethylpropyl)-1H-benzotriazole]: the pEC50 was 7.19.

Consider `CC(C)(C)/C(COc1ccc2c(nnn2CC2CC2)c1Br)=N/O` [Example 9-1, 1-{[4-Bromo-1-(cyclopropylmethyl)-1H-benzotriazol-5-yl]oxy}-N-hydroxy-3,3-dimethylbutan-2-imine], for which the pEC50 is 7.08.

With `C[C@H](O)C(=O)N1CCC(COc2ccc3c(nnn3CC3CC3)c2Br)CC1` [Example 4-65, (2S)-1-[4-({[4-bromo-1-(cyclopropylmethyl)-1H-benzotriazol-5-yl]oxy}methyl)piperidin-1-yl]-1-oxopropan-2-ol], the pEC50 is 6.73.

Turning to `Brc1c(OCCn2cccn2)ccc2c1nnn2CC1CC1` [Example 10-275, 4-bromo-1-(cyclopropylmethyl)-5-[2-(1H-pyrazol-1-yl)ethoxy]-1H-benzotriazole], the pEC50 is 6.67.

For the molecule `COc1ccc2c(nnn2CC2CCCC2)c1Br` [Example 1-3, 4-bromo-1-(cyclopentylmethyl)-5-methoxy-1H-benzotriazole], the pEC50 is 7.03.

On to `Brc1c(OCC2COCCO2)ccc2c1nnn2CC1CC1` (centres unmarked) [Example 10-73, 4-bromo-1-(cyclopropylmethyl)-5-(1,4-dioxan-2-ylmethoxy)-1H-benzotriazole], for which the pEC50 is 6.38.

In the case of `CC(C)(C)Cn1nnc2c(Br)c(OCc3ncccn3)ccc21` [Example 4-7, 4-bromo-1-(2,2-dimethyl-propyl)-5-(pyrimidin-2-ylmethoxy)-1H-benzotriazole], the pEC50 is 6.28.

As to `O=C1CCC(Oc2ccc3c(nnn3CC3CC3)c2Br)CC12CC2` (centres unmarked) [Example 10-171, 7-{[4-bromo-1-(cyclopropyl-methyl)-1H-benzotriazol-5-yl]oxy}spiro[2.5]octan-4-one], the pEC50 is 7.06.

Regarding `CC(C)(C)OC(=O)N1CCC(COc2ccc3c(nnn3CC3CC3)c2Br)C1` (centres unmarked) [Example 4-67, tert-butyl 3-({[4-bromo-1-(cyclopropylmethyl)-1H-benzotriazol-5-yl]oxy}methyl) pyrrolidine-1-carboxylate], the pEC50 is 7.70.

With `CC(C)(C)Cn1nnc2c(Br)c(OCc3cccc(-c4c[nH]nc4C#N)c3)ccc21` [Example 3-34, 4-[3-({[4-bromo-1-(2,2-dimethylpropyl)-1H-benzotriazol-5-yl]oxy}methyl)phenyl]-1H-pyrazole-3-carbonitrile], the pEC50 was 7.31.

Take `CC(C)(C)Cn1nnc2c(Br)c(OCc3ncccc3F)ccc21` [Example 4-42, 4-bromo-1-(2,2-dimethyl-propyl)-5-[(3-fluoropyridin-2-yl)methoxy]-1H-benzotriazole]: the pEC50 was 7.39.

On to `Brc1c(OCC2CCC2)ccc2c1nnn2CC1CC1` [Example 10-140, 4-bromo-5-(cyclobutylmethoxy)-1-(cyclopropylmethyl)-1H-benzotriazole], for which the pEC50 was 7.41.

`CC(C)(C)C(=O)COc1ccc2c(nnn2CC2CC2)c1Br` [Example 7-1, 1-{[4-Bromo-1-(cyclopropylmethyl)-1H-benzotriazol-5-yl]oxy}-3,3-dimethylbutan-2-one]: the pEC50 was 7.47.

Turning to `CC1(COc2ccc3c(nnn3CC3CC3)c2C(F)(F)F)CCN(C(=O)CO)CC1` [Example 4-79, 2-[4-({[1-(cyclopropylmethyl)-4-(trifluoromethyl)-1H-benzotriazol-5-yl]oxy}methyl)-4-methyl-piperidin-1-yl]-2-oxoethanol], the pEC50 is 8.15.

Broadly, the pEC50 is the negative decadic logarithm of the EC50, by convention in mol/L.
